Measurements: patent US20040254170A1, “Method of treating functional bowel disorders” (Dynogen, Inc., priority 2003, published 2004)
pKi: −log10 of the molar value. “And” between values parts separate entries of the source, which are not always exact repeats. Identical values can stand only once. Like-named read-outs stand apart in the source and are kept apart here.

Tests used:
[1] = target: T1, noradrenaline transporter ([^3H]NA uptake) (Rattus norvegicus, UniProt Q9WTR4); conditions: read-out: Ki, inhibition of [3H]NA uptake, cited from earlier work
T1 construct: The [^3H]NA uptake assays are performed on the cortical and hypothalamic synaptosomes; from tissue; host or cells: rat hypothalamic and cortical synaptosomes (P2 fraction)
T1 sequence (Q9WTR4 1-597): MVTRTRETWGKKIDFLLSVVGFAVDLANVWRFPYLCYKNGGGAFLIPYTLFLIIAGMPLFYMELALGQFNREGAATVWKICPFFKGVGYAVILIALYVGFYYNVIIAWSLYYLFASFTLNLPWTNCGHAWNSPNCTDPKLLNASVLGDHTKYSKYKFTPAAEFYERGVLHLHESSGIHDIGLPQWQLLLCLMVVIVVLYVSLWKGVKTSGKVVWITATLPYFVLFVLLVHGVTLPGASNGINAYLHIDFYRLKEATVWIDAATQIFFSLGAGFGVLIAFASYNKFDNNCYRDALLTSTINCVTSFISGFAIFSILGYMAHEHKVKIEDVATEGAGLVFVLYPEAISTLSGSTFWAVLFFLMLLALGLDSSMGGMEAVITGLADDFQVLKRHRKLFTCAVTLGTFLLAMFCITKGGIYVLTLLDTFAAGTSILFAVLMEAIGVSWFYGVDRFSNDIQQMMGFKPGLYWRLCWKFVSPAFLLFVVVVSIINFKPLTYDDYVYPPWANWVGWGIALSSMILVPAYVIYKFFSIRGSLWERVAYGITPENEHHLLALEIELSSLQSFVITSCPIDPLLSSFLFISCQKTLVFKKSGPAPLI

[2] = target: T2, 5-HT3 receptor (Mus musculus, UniProt P23979); conditions: radioligand binding; read-out: Ki, affinity for the 5-HT3 receptor; cited from earlier work
T2 construct: host or cells: N1E-115 mouse neuroblastoma cells
T2 sequence (P23979 24-489): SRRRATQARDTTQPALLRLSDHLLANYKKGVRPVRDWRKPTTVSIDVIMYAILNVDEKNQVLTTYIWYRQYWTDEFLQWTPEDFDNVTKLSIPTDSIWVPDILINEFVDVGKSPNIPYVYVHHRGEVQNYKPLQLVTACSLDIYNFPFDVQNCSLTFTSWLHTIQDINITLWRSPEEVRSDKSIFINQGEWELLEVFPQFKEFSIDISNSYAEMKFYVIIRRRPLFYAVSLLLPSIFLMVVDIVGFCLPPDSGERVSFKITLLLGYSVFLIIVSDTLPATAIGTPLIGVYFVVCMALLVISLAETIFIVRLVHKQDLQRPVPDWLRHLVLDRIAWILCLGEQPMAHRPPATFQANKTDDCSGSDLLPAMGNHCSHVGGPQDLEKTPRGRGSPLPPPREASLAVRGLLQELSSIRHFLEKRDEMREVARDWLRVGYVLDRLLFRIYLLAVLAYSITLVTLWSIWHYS

[3] = system: acetic acid sensitized male Fisher rats; test: Visceromotor response to colorectal distension, acetic acid-induced colonic hypersensitivity; type: in vivo, rat; conditions: for visceromotor response (number of abdominal contractions) to CRD compared to vehicle: all doses i.p. (ondansetron 1, 5, 10 mg/kg; nisoxetine 3, 10, 30 mg/kg), all distension pressures
Description: The visceromotor behavioral response to colorectal distension was measured by counting the number of abdominal contractions recorded by a strain gauge sutured onto the abdominal musculature as described in Gunter et al., Physiol. […] A 5 cm latex balloon catheter inserted via the anal canal into the colon was used for colorectal distensions. Constant pressure tonic distensions were performed in a graded manner (15, 30 or 60 mmHg) and were maintained for a period of 10 min and the numbers of abdominal muscle contractions were recorded to measure the level of colonic sensation. A 10 min recovery was allowed between distensions.
J. Physiol. […] In the present study, a low concentration of acetic acid (1.5 ml, 0.6%) was administered intracolonically to sensitize the colon without causing histological damage to the colonic mucosa as described in previous studies (Gunter et al., supra).
Injection volume was 0.2 mL using 100% propylene glycol as the vehicle. Three consecutive colorectal distensions at 15, 30 or 60 mmHg applied at 10-min intervals were recorded. Visceromotor responses were evaluated as the number of abdominal muscle contractions recorded during the 10-min periods of colorectal distension.
Adult male rats were used in the study. […] Specifically, rats were anesthetized with Isoflurane (2%) and were instrumented with a strain gauge force transducer for recording of abdominal muscle contractions. A latex balloon and catheter were inserted 11 cm into the colon. The animals were allowed a 30-min period to completely recover from the anesthesia and were then subjected to intracolonic infusion of acetic acid (1.5 mL, 0.6%). An additional 30-min period was allowed for sensitization of the colon. […] The protocol for colorectal distension was initiated 30-min post drug administration. After a basal reading of the number of abdominal contractions with the balloon inserted but not distended, three consecutive 10-min lasting colorectal distensions at 15, 30, and 60 mmHg were applied at 10-min intervals. Colorectal sensitivity was evaluated by counting the number of reflex abdominal contractions (i.e. the visceromotor response) observed within each distension period.
Acetic acid-induced colonic hypersensitivity in rats has been described by Langlois et al. and Plourde et al., referenced above.
The visceromotor behavioral response to colorectal distension was measured by counting the number of abdominal contractions recorded by a strain gauge sutured onto the abdominal musculature as previously described Gunter et al., referenced above. Colorectal distensions were carried out utilizing a 5 cm latex balloon catheter inserted into the colon via the anal canal. Constant pressure tonic distensions were performed in a graded manner, i.e., the pressure was increased to the desired level of 15, 30, or 60 mmHg and then maintained for a period of 10 minutes during which the number of abdominal contractions were recorded to measure the level of colonic sensation. Ten minute recovery periods were allowed following each distension.

[4] = system: male F-344 rats; test: Small Intestinal Transit (SIT) Rodent Model, charcoal meal; type: in vivo, rat; conditions: for Small intestinal transit, Mean (% of total small intestinal length): 15 min after charcoal meal
Source text: Specifically, the effects of MCI-225, the reference compounds (ondansetron and nisoxetine) and the vehicle on small intestinal transit were investigated in rats under control conditions. Following an overnight fast, rats were brought to the laboratory in their home cages and received an i.p. injection of one of the following: MCI-225, 100% propylene glycol (vehicle), ondansetron, nisoxetine and a combination of ondansetron and nisoxetine. Control rats received no treatment. The treated rats were placed back in the home cages and after 30 min, were fed a 2 mL charcoal meal via an oral gavage. Small intestinal transit was measured following 15 min test-period. Each rat was placed briefly in a glass chamber with IsoFlo for anesthesia and sacrificed. The stomach and the small intestine were removed and the total length of the small intestine was measured. Transit was then measured as the distance that the charcoal meal had traveled along the small intestine and expressed as % of the total length. Animals were randomly assigned to experimental groups and experiments were performed as illustrated in Table 3.
Small intestinal transit in rats was investigated by the passage of a charcoal meal along the small intestine during a defined time period (15-min). The animals were deprived of food for 12-16 hrs prior to the experiments. Rats were given a charcoal meal (a mixture of charcoal, gum arabic, and distilled water) as a 2 mL oral gavage and were sacrificed after a 15-min test period. The distance traveled by the charcoal meal was quantified as a percent of the small intestinal length, using the following equation:
Transit (%)=cm traveled by meal/cm total small intestinal length×100
Small intestinal transit was evaluated in relative units (%) of the total intestinal length in the following groups receiving different drug treatment: naïve (untreated), vehicle (propylene glycol, 200 μL i.p.), MCI-225 (3, 10 and 30 mg/kg, i.p.), nisoxetine (3, 10 and 30 mg/kg, i.p.), ondansetron (1, 5 and 10 mg/kg, i.p.) and a combination of nisoxetine (10 mg/kg, i.p.) and ondansetron (5 mg/kg, i.p.). A total of 61 experiments were performed (4-6 rats per group).

[5] = target: T3, dopamine reuptake ([^3H]DA uptake) (Rattus norvegicus, UniProt P23977); conditions: synaptosomes from rat striatal tissue; read-out: Ki, inhibition of [3H]DA uptake; cited from earlier work
T3 construct: the [^3H]DA uptake assays are performed on striatal synaptosomes; from tissue; host or cells: rat striatal synaptosomes (P2 fraction)
T3 sequence (P23977 whole entry): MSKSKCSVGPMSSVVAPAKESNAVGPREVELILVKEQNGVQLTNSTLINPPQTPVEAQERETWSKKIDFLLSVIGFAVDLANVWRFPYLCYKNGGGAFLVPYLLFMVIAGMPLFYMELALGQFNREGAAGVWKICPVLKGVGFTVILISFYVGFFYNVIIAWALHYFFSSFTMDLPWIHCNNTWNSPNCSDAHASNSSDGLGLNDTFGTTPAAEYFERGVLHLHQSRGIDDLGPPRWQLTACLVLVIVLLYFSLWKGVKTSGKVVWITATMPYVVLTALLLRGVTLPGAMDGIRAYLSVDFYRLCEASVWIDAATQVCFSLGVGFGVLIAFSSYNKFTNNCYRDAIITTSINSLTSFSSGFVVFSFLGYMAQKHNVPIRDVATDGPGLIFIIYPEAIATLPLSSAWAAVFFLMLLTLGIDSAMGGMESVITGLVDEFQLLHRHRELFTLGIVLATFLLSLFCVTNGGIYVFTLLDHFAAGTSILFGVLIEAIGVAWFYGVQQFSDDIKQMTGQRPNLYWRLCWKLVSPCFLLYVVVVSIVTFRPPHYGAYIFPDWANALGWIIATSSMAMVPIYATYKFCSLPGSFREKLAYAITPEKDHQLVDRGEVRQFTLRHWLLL

[6] = target: T4, serotonin reuptake ([^3H]5-HT uptake) (Rattus norvegicus, UniProt P31652); conditions: cited from earlier work
T4 construct: The [^3H]5-HT uptake assays are performed on the cortical, hypothalamic and hippocampal synaptosomes; from tissue; host or cells: rat hypothalamic, cortical and hippocampal synaptosomes (P2 fraction)
T4 sequence (P31652 whole entry): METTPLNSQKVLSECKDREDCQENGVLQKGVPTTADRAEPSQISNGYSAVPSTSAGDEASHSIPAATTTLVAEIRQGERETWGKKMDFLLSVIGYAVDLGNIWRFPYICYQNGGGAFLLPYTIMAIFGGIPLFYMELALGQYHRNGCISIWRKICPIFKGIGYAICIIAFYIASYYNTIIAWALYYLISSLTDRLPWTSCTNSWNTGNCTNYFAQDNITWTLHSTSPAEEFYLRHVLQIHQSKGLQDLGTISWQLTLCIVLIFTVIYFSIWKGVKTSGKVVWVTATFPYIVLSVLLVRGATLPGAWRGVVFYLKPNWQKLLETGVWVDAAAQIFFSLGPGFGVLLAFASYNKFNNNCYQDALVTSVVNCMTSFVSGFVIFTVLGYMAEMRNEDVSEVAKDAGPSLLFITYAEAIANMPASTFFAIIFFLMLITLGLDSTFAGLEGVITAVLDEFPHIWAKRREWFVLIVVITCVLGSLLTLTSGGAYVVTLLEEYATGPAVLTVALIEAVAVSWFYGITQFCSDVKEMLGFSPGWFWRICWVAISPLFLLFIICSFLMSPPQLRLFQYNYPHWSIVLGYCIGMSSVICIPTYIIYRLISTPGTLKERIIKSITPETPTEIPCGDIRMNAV

[7] = system: male F-344 rats subjected to water avoidance stress; test: Water Avoidance Stress (WAS) model, fecal pellet output; type: in vivo, rat; conditions: for number of fecal pellets produced during 1 hour of WAS compared to vehicle: all doses i.p. (MCI-225, nisoxetine 3, 10, 30 mg/kg; ondansetron 1, 5, 10 mg/kg)
Source text: The model used in this example provided a method of determining the ability of MCI-225 to normalize accelerated colonic transit induced by water avoidance stress (WAS). […] The model provides a method of evaluating the effectiveness of a compound in a specific patient group of IBS sufferers where stress induced colonic motility is considered a significant contributing factor. All rats underwent sham stress (1-hour in stress chamber without water) for 2-4 consecutive days before undergoing WAS (sham was performed until rats produced 0-1 pellet per hour for 2 consecutive days). At the end of the 1-hour stress period, the fecal pellets were counted and recorded. WAS causes an acceleration of colonic transit, which can be quantified by counting the number of fecal pellets, produced during the stress procedure. Rats were placed for 1-hour into a stress chamber onto a raised platform 7.5 cm×7.5 cm×9 cm (L×W×H) in the center of a stress chamber filled with room temperature water 8 cm in depth. The stress chamber was constructed from a rectangular plastic tub (40.2×60.2×31.2 cm). […] Ondansetron was supplied from APIN Chemicals LTD. […] MCI-225 was provided by Mitsubishi Pharma Corp. All drugs were dissolved in a vehicle of 100% propylene glycol (1,2-propanediol) by sonicating for a period of 10 minutes. Propylene glycol was obtained from Sigma Chemical Co. […] All drugs and the vehicle were administered as an i.p. injection in a volume of 0.2 mL.

Question: With Cc1cc2c(-c3ccccc3F)nc(N3CCNCC3)nc2s1 [MCI-225, 4-(2-fluorophenyl)-6-methyl-2-(1-piperazinyl)thieno[2,3-d]pyrimidine] as the molecule, how does the pKi ([1]; synaptosomes from rat cortical tissue) read?
Answer: 9.16

Question: And the pKi ([1]; synaptosomes from rat hypothalamic tissue)?
Answer: 7.46

Question: What about the pKi [2] of the same molecule?
Answer: > 7.00

Question: And the “animals in which the visceromotor response to CRD was eliminated” value ([3]; Example 1, 30 mg/kg i.p., n=6, CRD 15, 30, 60 mmHg)?
Answer: 50%

Question: And the “Small intestinal transit, Mean (% of total small intestinal length)” value ([4]; 3 mg/kg i.p.)?
Answer: 30.1%

Question: And the “Small intestinal transit, Mean (% of total small intestinal length)” value ([4]; 10 mg/kg i.p.)?
Answer: 4.2±2.6% and 4.2%

Question: And the “Small intestinal transit, Mean (% of total small intestinal length)” value ([4]; 30 mg/kg i.p.)?
Answer: 8.8%

Question: What about the pKi [5] of the same molecule?
Answer: 4.83

Question: What about the pKi ([6]; synaptosomes from rat cortical tissue, read-out: Ki, inhibition of [3H]5-HT uptake) of the same molecule?
Answer: 5.97

Question: And the pKi ([6]; synaptosomes from rat hippocampal tissue, read-out: Ki, inhibition of serotonin uptake)?
Answer: 6.61

Question: What about the pKi ([6]; synaptosomes from rat hypothalamic tissue, read-out: Ki, inhibition of [3H]5-HT uptake) of the same molecule?
Answer: 6.31

Question: What does the source list for CNCCC(Oc1ccccc1OC)c1ccccc1 (stereo not drawn) [Nisoxetine]?
Answer: behavior in the home cage during the experiments ([3]; Example 2, 30 mg/kg i.p.): increased exploratory behavior; visceromotor response (number of abdominal contractions) to CRD compared to vehicle ([3]; Example 2): no significant effect; Small intestinal transit, Mean (% of total small intestinal length) ([4]; 3 mg/kg i.p.): 40.3%; Small intestinal transit, Mean (% of total small intestinal length) ([4]; 10 mg/kg i.p.): 38.6%; animals with charcoal meal completely retained in the stomach ([4]; 30 mg/kg i.p.): 4 out of 5; small intestinal transit ([4]; 30 mg/kg i.p.): almost completely inhibited; Small intestinal transit, Mean (% of total small intestinal length) ([4]; 30 mg/kg i.p.): 4.7%; small intestinal transit ([4]; 3 or 10 mg/kg i.p.): tendency to decrease; number of fecal pellets produced during WAS compared to vehicle ([7]; 10 and 30 mg/kg i.p.): significantly fewer; number of fecal pellets produced during 1 hour of WAS compared to vehicle [7]: reduced by all doses

Question: With Cc1nccn1CC1CCc2c(c3ccccc3n2C)C1=O (stereo not drawn) [Ondansetron] as the molecule, how does the “visceromotor response (number of abdominal contractions) to CRD compared to vehicle” value ([3]; Example 2) read?
Answer: significant dose-dependent inhibition

Question: And the “changes in behavioral activity of the rats” value ([3]; Example 2, following treatment 1, 5 or 10 mg/kg i.p.)?
Answer: No significant changes

Question: And the “responses to moderate and high intraluminal pressure” value ([3]; Example 2, highest dose 10 mg/kg i.p., 30 and 60 mmHg, responses not abolished)?
Answer: reduced these responses to levels characteristic for naïve non-sensitized rats

Question: What about the “Small intestinal transit, Mean (% of total small intestinal length)” value ([4]; 1 mg/kg i.p.) of the same molecule?
Answer: 27.6%

Question: What about the “Small intestinal transit, Mean (% of total small intestinal length)” value ([4]; 5 mg/kg i.p.) of the same molecule?
Answer: 32.1%

Question: And the “Small intestinal transit, Mean (% of total small intestinal length)” value ([4]; 10 mg/kg i.p.)?
Answer: 18.4%%

Question: And the “small intestinal transit compared to vehicle” value ([4]; across doses i.p. (MCI-225 3, 10, 30 mg/kg; ondansetron 1, 5, 10 mg/kg))?
Answer: significant reduction

Question: And the “advance of the charcoal meal from the stomach into the small intestine” value ([4]; doses tested i.p.)?
Answer: a portion of the charcoal meal was always found to advance

Question: What about the “number of fecal pellets produced during 1 hour of WAS compared to vehicle” value [7] of the same molecule?
Answer: significantly less
